Several values for one entry are separate records, joined by “and”; a condition that tells them apart may be missing. Identical values can stand only once. Like-named read-outs stand apart in the source and are kept apart here.
How the values were obtained:
Type in all cases: biochemical
[1] = biological target: T1, Sirt1 (Homo sapiens, UniProt Q96EB6); test: Fluorescence-based ZMAL deacetylase activity assay, Sirt1
T1 construct: Expression and purification of Sirt1_133−747, Sirt2_56−356, and Sirt3_118−395 was carried out as described previously; made in house
T1 sequence (Q96EB6 133-747): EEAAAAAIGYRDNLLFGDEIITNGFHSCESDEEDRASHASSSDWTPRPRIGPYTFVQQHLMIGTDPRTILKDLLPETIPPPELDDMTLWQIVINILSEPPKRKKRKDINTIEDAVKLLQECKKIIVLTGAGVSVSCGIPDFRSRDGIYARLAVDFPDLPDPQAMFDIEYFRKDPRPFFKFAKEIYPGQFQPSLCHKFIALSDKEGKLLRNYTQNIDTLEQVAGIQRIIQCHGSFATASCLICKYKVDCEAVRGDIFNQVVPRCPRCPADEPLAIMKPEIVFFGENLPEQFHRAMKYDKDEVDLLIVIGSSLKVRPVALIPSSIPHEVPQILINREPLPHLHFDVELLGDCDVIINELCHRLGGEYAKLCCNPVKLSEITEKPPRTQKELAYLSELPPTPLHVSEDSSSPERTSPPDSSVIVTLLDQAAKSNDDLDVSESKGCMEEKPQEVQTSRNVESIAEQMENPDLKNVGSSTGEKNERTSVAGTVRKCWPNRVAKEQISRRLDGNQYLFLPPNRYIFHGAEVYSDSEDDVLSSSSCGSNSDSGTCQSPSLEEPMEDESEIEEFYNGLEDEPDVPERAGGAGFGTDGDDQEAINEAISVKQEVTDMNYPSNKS
Experimental: (§1) The effect of the compounds on deacetylase activity of three human sirtuin isotypes (Sirt1–3) was investigated by a homogeneous fluorescence‐based assay, using (Z)‐Lys(acetyl)‐AMC (ZMAL) as substrate. In order to determine the impact of photoisomerization, the respective compounds were irradiated (365 nm, 5 min) in DMSO prior to incubation in the enzyme assay mixture. The results of the irradiated probes were finally compared to non‐irradiated measurements.
(§2) Cloning, expression and purification of recombinant proteins: Expression and purification of Sirt1_133−747, Sirt2_56−356, and Sirt3_118−395 was carried out as described previously.27 Identity and purity were verified by SDS‐PAGE.
(§3) Fluorescence‐based activity assay: The inhibitory effect of compounds on Sirt1–3 was detected via a previously reported fluorescence‐based assay.29 The synthetic substrate (Z)‐Lys(acetyl)‐AMC (ZMAL) is deacetylated by sirtuins, followed by tryptic digestion and thereby release of 7‐aminomethylcoumarin, leading to a fluorescent readout. Inhibition was determined by comparing percentage substrate conversion to a DMSO control after subtraction of the blank fluorescence signal. All compounds were tested at 100 or 50 μM and 10 μM respectively. […] IC50 values were calculated with OriginPro 9.0 G using a non‐linear regression to fit the dose response curve (Figure S6). An enzyme‐free blank control and a 100 % conversion control using AMC instead of ZMAL were measured as well. Inhibition measurements were performed in biological duplicates for all compounds. […]
(§4) Fluorescence-Based Activity Assay (ZMAL-Assay)
(§5) The influence of the synthesized compounds on the deacetylase activity of the class I sirtuins Sirt1–3 was determined in a homogenous fluorescence-based enzyme assay, using the artificial substrate Z-(Ac)Lys-AMC (ZMAL). ZMAL is processed by sirtuins yielding Z-Lys-AMC.
(§6) The latter is subsequently cleaved by tryptic digestion, releasing 7-amino-4-methylcoumarin (AMC), excitation of which leads to a fluorescent read out (λex=390 nm; λem=460 nm). Instead, […]
(§7) contribute to the fluorescence signal. Therefore, the fluorescence intensity is proportional to the activity of the respective sirtuin.
(§8) After subtraction of the blank fluorescence signal (without enzyme) from the signal of the respective probe, the residual signal intensity is related to a 100 % conversion control (AMC), […]
(§9) yielding the percentage substrate conversion. Comparison of the determined substrate conversion with a no-inhibition DMSO control yields the percentage inhibition at the respective […]
(§10) For determination of IC50, inhibitory activity of the respective compound was determined at 8 to 10 distinct concentrations. The measured values were analysed by a non-linear fit to the dose-response curve using a four parameter logistic model (Figure S6):
(§11) Figure S6: Non-linear regression of the dose-response curves of compounds 15c and 15f at the thermal equilibrium (∆, black) and after 5 minutes of 365 nm irradiation (red). […]
A maximal polarization control using just DMSO and a minimal polarization control using 1 µL of the 400 µM solution of 22 instead of inhibitor were performed as well as a blank control containing 1 µL of DMSO in 19 µL assay buffer. The mixture was incubated 10 min at 37 °C […]
(1 picture or pasted object on this page, not shown here)

[2] = biological target: T2, Sirt2 (Homo sapiens, UniProt Q8IXJ6); test: Fluorescence-based ZMAL deacetylase activity assay, Sirt2; set-up: key to Sirt2 inhibition Δ (class): n.i.: no inhibition detected (<30 % @ 100 μM); u.i.: unspecific interactions
T2 construct: Expression and purification of Sirt1_133−747, Sirt2_56−356, and Sirt3_118−395 was carried out as described previously; made in house
T2 sequence (Q8IXJ6 56-356): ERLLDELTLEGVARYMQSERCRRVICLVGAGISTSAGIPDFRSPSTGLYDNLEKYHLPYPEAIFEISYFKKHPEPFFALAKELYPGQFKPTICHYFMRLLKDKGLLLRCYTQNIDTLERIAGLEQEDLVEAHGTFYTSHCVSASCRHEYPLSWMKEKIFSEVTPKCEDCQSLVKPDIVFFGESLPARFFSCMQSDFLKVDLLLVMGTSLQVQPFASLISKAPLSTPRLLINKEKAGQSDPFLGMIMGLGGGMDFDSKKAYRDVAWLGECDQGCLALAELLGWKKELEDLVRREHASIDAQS
Experimental: as §1, §2, §3, §4, §5, §6, §7, §8, §9, §10, §11
(§12) A maximal polarization control using just DMSO and a minimal polarization control using 1 µL of the 400 µM solution of 22 instead of inhibitor were performed as well as a blank control containing 1 µL of DMSO in 19 µL assay buffer. The mixture was incubated 10 min at 37 °C

[3] = biological target: T3, Sirt3 (Homo sapiens, UniProt Q9NTG7); test: Fluorescence-based ZMAL deacetylase activity assay, Sirt3; set-up: key to Sirt3 inhibition Δ (class) / Sirt3 inhibition PSS [365 nm] (class): n.i.: no inhibition detected (<30 % @ 100 μM); u.i.: unspecific interactions
T3 construct: Expression and purification of Sirt1_133−747, Sirt2_56−356, and Sirt3_118−395 was carried out as described previously; made in house
T3 sequence (Q9NTG7 118-395): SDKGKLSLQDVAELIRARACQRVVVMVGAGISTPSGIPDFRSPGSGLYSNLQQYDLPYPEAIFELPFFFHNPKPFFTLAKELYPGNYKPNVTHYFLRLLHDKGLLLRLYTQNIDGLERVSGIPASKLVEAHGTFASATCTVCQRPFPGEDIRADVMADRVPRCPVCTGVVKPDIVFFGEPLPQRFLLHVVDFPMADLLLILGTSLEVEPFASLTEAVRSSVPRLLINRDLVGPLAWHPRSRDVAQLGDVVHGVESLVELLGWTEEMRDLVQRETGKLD
Experimental: as §1, §2, §3, §4, §5, §6, §7, §8, §9, §10, §11, §12

[4] = PSS after 5 min UV irradiation (365 nm), read-out: Sirt1 inhibition PSS [365 nm], percent inhibition
[5] = thermal equilibrium (Δ), read-out: Sirt1 inhibition Δ (class)
[6] = PSS 365 nm versus thermal equilibrium
[7] = PSS after 5 min UV irradiation (365 nm), read-out: Sirt2 inhibition PSS [365 nm], IC50
[8] = thermal equilibrium (Δ), read-out: Sirt2 inhibition Δ, IC50
[9] = PSS after 5 min UV irradiation (365 nm), read-out: Sirt3 inhibition PSS [365 nm], IC50
[10] = thermal equilibrium (Δ), read-out: Sirt3 inhibition Δ, IC50
[11] = @ 100 μM, PSS after 5 min UV irradiation (365 nm), read-out: Sirt1 inhibition PSS [365 nm], percent inhibition
[12] = PSS after 5 min UV irradiation (365 nm), read-out: Sirt3 inhibition PSS [365 nm], percent inhibition
[13] = thermal equilibrium (Δ), read-out: Sirt3 inhibition Δ, percent inhibition
[14] = PSS after 5 min UV irradiation (365 nm), read-out: Sirt1 inhibition PSS [365 nm] (class)
[15] = @ 100 μM, thermal equilibrium (Δ), read-out: Sirt1 inhibition Δ, percent inhibition

SMILES | inhibition at 10 µM [1, 4] | inhibition at 100 µM [1, 5] | decrease of Sirt2 inhibition upon 365 nm irradiation (factor) [2, 6] | IC50 [2, 7] | IC50 [2, 8] | decrease of Sirt3 inhibition upon 365 nm irradiation (factor) [3, 6] | IC50 [3, 9] | IC50 [3, 10] | inhibition at 100 µM [1, 11] | inhibition at 10 µM ([2]; PSS after 5 min UV irradiation (365 nm), read-out: Sirt2 inhibition PSS [365 nm], percent inhibition (converted)) | inhibition at 10 µM ([2]; thermal equilibrium (Δ), read-out: Sirt2 inhibition Δ, percent inhibition (converted)) | inhibition at 10 µM [3, 12] | inhibition at 10 µM [3, 13] | inhibition at 100 µM [1, 14] | increase of Sirt2 inhibition upon 365 nm irradiation (factor) [2, 6] | Sirt3 inhibition PSS [365 nm] (class) ([3]; PSS after 5 min UV irradiation (365 nm)) | Sirt3 inhibition Δ (class) ([3]; thermal equilibrium (Δ)) | inhibition at 100 µM [1, 15] | Sirt2 inhibition Δ (class) ([2]; thermal equilibrium (Δ))
CC(C)(C)OC(=O)NCc1ccc(/N=N/c2cncc(C(N)=O)c2)cc1 [15 c] | 6% | < 30% | three | 2.8 ± 0.1 µM | 0.9 µM and 0.88 µM | fourfold | 4 ± 0.7 µM | 1.1 ± 0.2 µM | – | – | – | – | – | – | – | – | – | – | –
NC(=O)c1cncc(/N=N/c2ccc(Br)cc2)c1 [15 d] | – | < 30% | – | 8.4 ± 0.9 µM | 7.5 ± 0.5 µM | – | 13 ± 2.2 µM | 8.2 ± 1.4 µM | 47% | – | – | – | – | – | – | – | – | – | –
CCCCNC(=O)c1ccc(/N=N/c2cncc(C(N)=O)c2)cc1 [15 e] | 10% | < 30% | – | – | – | – | – | – | – | 61% | 51% | 49% | 54% | – | – | – | – | – | –
CCCCCCCCCC(=O)NCc1ccc(/N=N/c2cncc(C(N)=O)c2)cc1 [15 f] | – | < 30% | – | 1.6 ± 0.2 µM | 37 µM and 36.6 µM | – | – | – | – | – | – | – | – | < 30% | 23 fold | n.i. (n.i.: no inhibition detected (<30 % @ 100 μM)) | n.i. (n.i.: no inhibition detected (<30 % @ 100 μM)) | – | –
NC(=O)c1cncc(/N=N/c2ccc(C#CCCCCO)cc2)c1 [15 g] | – | – | 1.6 fold | 11.8 ± 1 µM | 7.2 ± 0.5 µM | – | – | – | 54% | – | – | 22% | 64% | – | – | – | – | 60% | –
CC(C)(O)C#Cc1ccc(/N=N/c2cncc(C(N)=O)c2)cc1 [15 h] | – | < 30% | 2.5 fold | 37.5 ± 5.2 µM | 15.2 ± 1.8 µM | – | – | – | – | – | – | 18% | 42% | < 30% | – | – | – | – | –
NC(=O)c1cncc(OCc2cccc(/N=N/c3ccc(OCc4ccccc4)cc3)c2)c1 [20 a] | – | < 30% | twofold | 1.6 ± 0.2 µM | 0.7 ± 0.21 µM | – | – | – | – | – | – | 24% | 23% | < 30% | – | – | – | – | –
NC(=O)c1cncc(OCc2cccc(/N=N/c3ccc(F)cc3)c2)c1 [20 b] | – | < 30% | twofold | 6.4 ± 0.5 µM | 3.2 ± 0.5 µM | – | – | – | – | – | – | 47% | 34% | < 30% | – | – | – | – | –
C#Cc1ccc(/N=N/c2cccc(COc3cncc(C(N)=O)c3)c2)cc1 [20 c] | – | – | – | 6.2 ± 0.54 µM | – | – | 17.2 ± 1.57 µM | – | 62% | – | – | – | – | – | – | – | u.i. | 45% | u.i.

— article PMC7496931, “Activation of Sirtuin 2 Inhibitors Employing Photoswitchable Geometry and Aqueous Solubility” (Chemmedchem, 2020)
